Test results reported in patent US10167283B2, “β-lactamase inhibitors and uses thereof” (priority 2015, dated 2019).
Where a name gives a salt, the structure may show the parent alone.

Experiments:
[1] = test system: Klebsiella pneumoniae 7450kpn-597 (KPC, ESBLs); experiment: In vitro antibacterial activity on clinically separated CRE strain, agar dilution MIC; format: cell-based; conditions: Table 3, 7450kpn-597 Klebsiella pneumoniae
Excerpt: (§1) Experimental strains: all experimental standard bacterial strains for enzyme production were purchased from ATCC, and the clinically separated CRE strain was purchased from Southwest Hospital of the Third Military Medical University.
(§2) Experimental Method: Agar dilution method, referring to M100-S23: Performance Standards for Antimicrobial Susceptibility Testing: Twenty-Third Informational Supplement (Clinical And Laboratory Standards Institute, 2013). Minimal inhibitory concentration (MIC, μg/mL) was calculated.

[2] = test system: Citrobacter freundii 7521cfr-169 (NDM, ESBLs, AmpC); experiment: as above; format: cell-based; conditions: Table 3, 7521cfr-169 Citrobacter freundii
Excerpt: as §1, §2

[3] = test system: Enterobacter cloacae 7494ecl-295 (NDM, ESBLs, AmpC); experiment: as above; format: cell-based; conditions: Table 3, 7494ecl-295 Enterobacter cloacae
Excerpt: as §1, §2

[4] = test system: Klebsiella pneumoniae 7463kpn-610 (ESBLs); experiment: as above; format: cell-based; conditions: Table 3, 7463kpn-610 Klebsiella pneumoniae
Excerpt: as §1, §2

[5] = test system: Enterobacter cloacae 7495ecl-296 (IMP, ESBLs, AmpC); experiment: as above; format: cell-based; conditions: Table 3, 7495ecl-296 Enterobacter cloacae
Excerpt: as §1, §2

[6] = test system: Citrobacter freundii 7520cfr-167 (NDM, OXA-10, ESBLs); experiment: as above; format: cell-based; conditions: Table 3, 7520cfr-167 Citrobacter freundii
Excerpt: as §1, §2

[7] = test system: Enterobacter cloacae 7498ecl-299 (ESBLs, AmpC); experiment: as above; format: cell-based; conditions: Table 3, 7498ecl-299 Enterobacter cloacae
Excerpt: as §1, §2

[8] = test system: Enterobacter cloacae 7513ecl-314 (AmpC); experiment: as above; format: cell-based; conditions: Table 3, 7513ecl-314 Enterobacter cloacae
Excerpt: as §1, §2

[9] = test system: Klebsiella pneumoniae 7484kpn-631 (IMP, ESBLs); experiment: as above; format: cell-based; conditions: Table 3, 7484kpn-631 Klebsiella pneumoniae
Excerpt: as §1, §2

[10] = test system: Escherichia coli 7438eco-639 (NDM, ESBLs); experiment: as above; format: cell-based; conditions: Table 3, 7438eco-639 Escherichia coli
Excerpt: as §1, §2

[11] = molecular target: T1, CTX-M-1 (Escherichia coli, UniProt P28585); experiment: β-lactamase inhibition, Nitrocefin hydrolysis; format: biochemical; conditions: Experiment 2; enzyme 0.2 nM, Nitrocefin 0.1 mM
T1 construct: purchased
Method: (§3) Nitrocefin, a kind of cephalosporin antibiotics, is sensitive to most of β-lactamases, and changes in color after being hydrolyzed. The hydrolysis rate of Nitrocefin was measured by real-time recording corresponding absorbance of reaction system. β-Lactamase inhibitors could inhibit hydrolysis of the enzymes to Nitrocefin, and reduce hydrolysis rate. By measuring reaction rates in the same reaction system under different inhibitor concentrations, the IC50 (half maximal inhibitory concentration) values of inhibitors were calculated.
(§4) Nitrocefin was dissolved in DMSO to form a solution with concentration of 2 mM, which was sub-packaged and stored at −20° C. The concentration of purchased β-lactamases mother liquor was 1 mg/mL, and the mother liquor was dissolved in 50% glycerol. A part of mother liquor was taken and diluted by 1000 times in reaction solution, sub-packaged and stored at ˜20° C.
(§5) The compounds to be tested were dissolved in DMSO to form a mother liquor with concentration of 10 mM. If not used that day, the mother liquor was stored at −20° C. Its test final concentrations were: 100 μM, 25 μM, 6.25 μM, 1.563 μM, 390.6 nM, 97.66 nM, 24.41 nM, 6.10 nM, 1.53 nM, 0.381 nM, 0.095 nM.

[12] = molecular target: T2, TEM-1 (Escherichia coli, UniProt P62593); experiment: β-lactamase inhibition, Nitrocefin hydrolysis; format: biochemical; conditions: Experiment 2; enzyme 1 nM, Nitrocefin 0.1 mM; read-out: IC50 TEM-1
T2 construct: purchased
Method: as §3, §4, §5

[13] = molecular target: T3, KPC-2 (Klebsiella pneumoniae, UniProt Q9F663); experiment: β-lactamase inhibition, Nitrocefin hydrolysis; format: biochemical; conditions: Experiment 2; enzyme 1.28 nM, Nitrocefin 0.1 mM; read-out: IC50 KPC-2
T3 construct: purchased
Method: as §3, §4, §5

[14] = molecular target: T4, AmpC (UniProt P05364); experiment: β-lactamase inhibition, Nitrocefin hydrolysis; format: biochemical; conditions: read-out: IC50 AmpC; Experiment 2; enzyme 1.6 nM, Nitrocefin 0.1 mM
T4 construct: The concentration of purchased β-lactamases mother liquor was 1 mg/mL, and the mother liquor was dissolved in 50% glycerol
Method: as §3, §4, §5

[15] = test system: Klebsiella pneumoniae BAA-2146 (NDM-1); experiment: In vitro antibacterial activity, agar dilution MIC; format: cell-based; conditions: BAA2146, Table 2, BAA-2146 Klebsiella pneumoniae, NDM-1, read-out: MIC
Excerpt: as §1, §2

[16] = test system: Klebsiella pneumoniae BAA-2524 (OXA-48); experiment: In vitro antibacterial activity, agar dilution MIC; format: cell-based; conditions: BAA2524; Table 2; BAA-2524 Klebsiella pneumoniae, OXA-48; read-out: MIC
Excerpt: as §1, §2

[17] = test system: Enterobacter cloacae BAA-2341 (KPC); experiment: In vitro antibacterial activity, agar dilution MIC; format: cell-based; conditions: BAA2341; Table 2; BAA-2341 Enterobacter cloacae, KPC; read-out: MIC
Excerpt: as §1, §2

[18] = test system: Escherichia coli BAA-2523 (OXA-48); experiment: In vitro antibacterial activity, agar dilution MIC; format: cell-based; conditions: BAA2523, Table 2, BAA-2523 Escherichia coli, OXA-48, read-out: MIC
Excerpt: as §1, §2

[19] = test system: Klebsiella pneumoniae BAA-1900 (KPC); experiment: In vitro antibacterial activity, agar dilution MIC; format: cell-based; conditions: BAA1900, Table 2, BAA-1900 Klebsiella pneumoniae, KPC, read-out: MIC
Excerpt: as §1, §2

[20] = test system: Klebsiella oxytoca ATCC-51983 (SHV-5); experiment: In vitro antibacterial activity, agar dilution MIC; format: cell-based; conditions: ATCC51983; Table 2; ATCC-51983 Klebsiella oxytoca, SHV-5; read-out: MIC
Excerpt: as §1, §2

[21] = test system: Enterobacter hormaechei BAA-2082 (KPC); experiment: In vitro antibacterial activity, agar dilution MIC; format: cell-based; conditions: BAA2082; Table 2; BAA-2082 Enterobacter hormaechei, KPC; read-out: MIC
Excerpt: as §1, §2

[22] = test system: Escherichia coli BAA-2452 (NDM-1); experiment: In vitro antibacterial activity, agar dilution MIC; format: cell-based; conditions: BAA2452, Table 2, BAA-2452 Escherichia coli, NDM-1, read-out: MIC
Excerpt: as §1, §2

T3 sequence (Q9F663 25-293, looked up, species assumed): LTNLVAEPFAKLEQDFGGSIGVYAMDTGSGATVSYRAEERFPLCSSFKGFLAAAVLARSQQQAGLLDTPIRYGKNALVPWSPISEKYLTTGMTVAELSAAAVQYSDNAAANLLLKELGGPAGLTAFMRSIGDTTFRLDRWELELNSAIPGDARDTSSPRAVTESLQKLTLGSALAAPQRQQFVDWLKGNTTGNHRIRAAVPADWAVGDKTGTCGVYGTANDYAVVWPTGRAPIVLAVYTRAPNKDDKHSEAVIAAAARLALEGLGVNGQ
T1 sequence (P28585 29-291): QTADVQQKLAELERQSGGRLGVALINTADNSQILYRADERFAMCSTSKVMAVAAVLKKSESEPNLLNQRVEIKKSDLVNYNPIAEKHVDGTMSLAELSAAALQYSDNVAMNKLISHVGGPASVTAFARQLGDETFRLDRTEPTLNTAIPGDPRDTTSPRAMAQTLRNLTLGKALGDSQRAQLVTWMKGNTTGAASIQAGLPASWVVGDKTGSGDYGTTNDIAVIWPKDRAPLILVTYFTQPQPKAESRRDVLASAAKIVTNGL
T2 sequence (P62593 24-286 limits assumed): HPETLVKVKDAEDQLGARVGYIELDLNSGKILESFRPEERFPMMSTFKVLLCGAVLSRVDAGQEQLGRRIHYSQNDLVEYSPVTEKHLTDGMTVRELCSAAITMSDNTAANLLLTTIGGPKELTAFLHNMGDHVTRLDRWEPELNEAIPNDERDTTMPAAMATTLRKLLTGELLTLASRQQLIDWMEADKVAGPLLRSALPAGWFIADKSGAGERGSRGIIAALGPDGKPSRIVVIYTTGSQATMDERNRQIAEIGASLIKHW

Q: For `CN1CC2(CC(NC(=O)[C@@H]3CC[C@@H]4CN3C(=O)N4OS(=O)(=O)O)C2)C1` [Compound 6, sodium (2S,5R)-2-((2-methyl-2-azaspiro[3.3]heptan-6-yl)carbamoyl)-7-oxo-1,6-diazabicyclo[3.2.1]octan-6-yl hydrogen sulfate], which MIC [1] is on record?
A: 2 µg/mL

Q: What about the MIC [2] of the same compound?
A: 2 µg/mL

Q: What about the MIC [3] of the same compound?
A: 2 µg/mL

Q: What about the MIC [4] of the same compound?
A: 2 µg/mL

Q: And the MIC [5]?
A: 2 µg/mL

Q: And the MIC [6]?
A: 2 µg/mL

Q: And the MIC [7]?
A: 2 µg/mL

Q: And the MIC [8]?
A: 2 µg/mL

Q: What about the MIC [9] of the same compound?
A: 4 µg/mL

Q: And the MIC [10]?
A: 2 µg/mL

Q: And the IC50 [11]?
A: 0.0408 µM

Q: What about the IC50 [12] of the same compound?
A: 0.0301 µM

Q: What about the IC50 [13] of the same compound?
A: 0.0423 µM

Q: What about the IC50 [14] of the same compound?
A: 0.0177 µM

Q: And the MIC [15]?
A: 4 µg/mL

Q: What about the MIC [16] of the same compound?
A: 2 µg/mL

Q: And the MIC [17]?
A: 2 µg/mL

Q: And the MIC [18]?
A: 1 µg/mL

Q: And the MIC [19]?
A: 2 µg/mL

Q: And the MIC [20]?
A: 4 µg/mL

Q: And the MIC [21]?
A: 2 µg/mL

Q: What about the MIC [22] of the same compound?
A: 2 µg/mL
